What was measured:
[1] = test system: PI-5K; assay: Reaction specificity of PI-5K toward lipid substrates; assay type: biochemical; settings: purified PI-5K 125 ng/ml, 15 min, room temperature; FIG. 9
Experimental: FIG. 9: Reaction specificity toward lipid substrates. Reactions according to the subject invention were performed with purified PI4P-5K (250 ng/ml) for 45 min at room temperature using 1 μg of different lipid substrates: PI3,4P (lane 1); PI3,5P2 (lane 2) and PI4,5P2 (lane 3). In addition to lipid substrates, all samples contained 10 μg of PS loaded on the membrane.
Lipids, 10 μg of PI4,5P2+20 μg of PS, were dissolved in chloroform:methanol (2:1) and loaded onto “SAM2”-brand membranes for PI-3K activity measurements. Likewise, 10 μg of PI4P was loaded onto “SAM2”-brand membranes for PI4P-5K activity measurements. The membranes were air dried and a reaction mixture containing 50 mM HEPES/NaOH, pH7.5, 100 mM NaCl, 10 mM MgCl2, 20 ng partially-purified PI-3K or 10 ng of purified PI4P-5K, 50 μM ATP supplemented with 1 μCi of γ-^32P-ATP was added onto the membrane containing the immobilized lipids.
Following incubation at room temperature, the reactions were stopped with 7.5 M guanidine chloride and the membranes were washed with 2M NaCl, followed by 2 M NaCl/1% H3PO4. The washed membranes were dried and subjected to scintillation counting.
This Example illustrates the reaction specificity toward lipid substrates. Here, a reaction was performed with purified PI-5K (125 ng/ml) for 15 min at room temperature using different lipid substrates: PI3,4P (lane 1); PI3,5P (lane 2) and PI4,5P2 (Lane 3).

[2] = test system: 3T3 NIH cells; assay: PI-3K activity associated with activated receptor in PDGF-stimulated 3T3 NIH cells; assay type: cell-based; settings: PDGF 50 ng/ml, 5 min, 37° C.; reaction 60 min, PI4,5P2 (10 μg) + PS (20 μg); FIG. 3
Experimental: FIG. 3: Detection of PI-3K activity associated with activated receptor. 3T3NIH cells (5×10^7 cells) were treated without (lane 1) or with (lane 2) PDGF (50 ng/ml for 5 min at 37° C.) and PI-3K was co-immunoprecipitated using anti-phosphotyrosine specific antibodies. The PI-3K reactions were run for 60 min using PIP2 (10 μg)+PS (20 μg) as substrates.
In resting cells, PI-3K is located in the cytosol. However, upon cell stimulation, the enzyme is recruited to the plasma membrane where it is associated with particular receptors and is involved in further propagation of the signal. This example illustrates that the described method allows to measure PI-3K activity associated with activated receptor. 3T3 NIH cells (0.5×10^7 cells) were starved oveminght in serum-free medium. PDGF (50 ng/ml) was added to the starved cells and the induction was carried out for 5 min at 37° C. Following the PDGF induction, cells were washed once with PBS while on the plate, scraped into PBS, transferred to a centrifuge tube, pelleted by centrifugation. The cell pellet was lysed and activated receptor-PI-3K complex was iminunoprecipitated using anti-phosphotyrosine specific antibodies. The PI-3K reaction was run for 60 min using PI4,5P2 (10 μg) as substrate, immobilized on “SAM2”-brand membranes, together with 20 μg of carrier lipid (PS).

Substance | substrate for PI-5K (phosphorylation, CPM) [1] | PI-3K activity co-immunoprecipitated with anti-phosphotyrosine antibodies [2]
D-myo-phosphatidylinositol 3,4-bisphosphate [PI3,4P] | suitable substrate | –
D-myo-phosphatidylinositol 3,5-bisphosphate [PI3,5P] | not substrates | –
D-myo-phosphatidylinositol 4,5-bisphosphate [PI4,5P] | not substrates | –
platelet-derived growth factor [PDGF] | – | increase in PI-3K activity

Reference: patent US6893834B2, “Assay for kinases and phosphatases” (Promega Corporation, priority 2000, dated 2005)
